Data from US6733995B2, “Cathepsin L, its prepro form and the corresponding propeptide from ciliates” (Nutrinova Nutrition Specialties & Food Ingredients GmbH, priority 1996, dated 2004).
Non-standard residues stand in square brackets, D forms with d. Residues, ends and D or L forms follow the SMILES beside them. *: point of attachment. Sta = CC(C)C[C@H](N)[C@@H](O)CC(=O)O; Isovaleryl = CC(C)CC(=O)*

Target: T1, Paramecium cathepsin L isozymes (30 kDa and 33 kDa) (Paramecium tetraurelia, UniProt Q94714)
T1 construct: identical enzyme proteins were involved, with the proteins possibly only being processed differently; from tissue; host or cells: Paramecium tetraurelia mass cultures (cell homogenate)
T1 sequence (Q94714 110-314): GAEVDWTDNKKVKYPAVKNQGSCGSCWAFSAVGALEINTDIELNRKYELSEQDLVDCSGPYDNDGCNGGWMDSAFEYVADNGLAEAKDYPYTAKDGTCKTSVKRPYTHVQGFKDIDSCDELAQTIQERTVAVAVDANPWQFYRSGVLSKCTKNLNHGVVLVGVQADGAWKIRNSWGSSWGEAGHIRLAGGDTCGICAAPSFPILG
Assay: Effect of class-specific protease inhibitors on the purified Paramecium proteases (cathepsin L assay)
Type: biochemical
Settings: 32P phosphorylase a as substrate
Procedure: ^32P-Phosphorylase a (approx. 5×10^4 cpm/min) was used as substrate. A test mixture (30 μl) contained 10 μM substrate, 12 mM Tris/HCl (pH 7.0), 50 μM EDTA, 10 mM 2-mercaptoethanol, 5 mM caffeine and 6.7 μg of BSA. The reaction was stopped, after incubating at 30° C. for 10 minutes, by adding 200 μl of trichloroacetic acid (20% w/v). The radioactivity of the non-precipitable peptides was determined in the supernatant following centrifugation. One unit of enzyme activity corresponds to the quantity which liberates 1 μmol of soluble ^32P-phosphopeptide/min.
All the purification steps were carried out at 4° C. The cells were homogenized in 50 mM Tris/HCl (pH 7.0), 5 mM EDTA using a French press. Cell debris were removed by centrifugation (23,000×g, 60 min; 100,000×g, 60 min). The supernatant was loaded onto a DEAE Sepharose® column which was equilibrated with 20 mM Tris/HCl (pH 7.0). About half the protease activity eluted with the flowthrough. The column was washed with 250 mM NaCl. The remaining protease activity was eluted with 450 mM KCl. After that, the active fractions were purified through a Sephacryl® S-100 HR column. The protease eluted at approximately 27 kDa. The pooled active fractions were subsequently loaded onto a mono Q column. Elution was carried out using a linear gradient (60 ml of from 100 to 350 mM NaCl). Two active proteases (30 kDa and 33 kDa) were separated in this step. Purity was examined by means of SDS-PAGE. When using ^32P phosphorylase a as substrate, the pH optimum of the two isozymes was 6.5; the temperature optimum was 56° C.

Compound | effect of inhibitor on protease activity
O=C(O)CN(CCN(CC(=O)O)CC(=O)O)CC(=O)O [EDTA] | no inhibitory effect
aprotinin | no inhibitory effect
Cc1ccc(S(=O)(=O)NC(CCCCN)C(=O)CCl)cc1 (stereo not drawn) [TLCK] | reduced the activity drastically
cystatin | reduced the activity drastically
CC(=O)N[C@@H](CC(C)C)C(=O)N[C@@H](CC(C)C)C(=O)N[C@H](C=O)CCCNC(=N)N [leupeptin] | reduced the activity drastically
CC(C)CC(=O)N[C@H](C(=O)N[C@H](C(=O)N[C@@H](CC(C)C)[C@@H](O)CC(=O)N[C@@H](C)C(=O)N[C@@H](CC(C)C)[C@@H](O)CC(=O)O)C(C)C)C(C)C [pepstatin] (Isovaleryl-VV[Sta]A[Sta]-OH) | no inhibitory effect
